Laboratory results taken from patent publication US4218477A, “Primary aminoacylanilides, methods of making the same and use as antiarrhythmic drugs” (priority 1976, dated 1980).
Where two headings read alike, the source gives them in different places.

Columns and labels:
[1] = Acute oral toxicity in mice (24 Hr. mortality); details: mouse, in vivo, po
mice [2] = assay: Ataxia just before CHCl3 challenge in mice, oral (Table I); type: in vivo, female Swiss albino mice (HAM/ICR)
Procedure: (§1) The experiments on mice were performed according to a modification of the method described by J. W. Lawson, "Antiarrhythmic activity of some isoquinoline derivatives determined by a rapid screening procedure in the mouse", J. Pharm. Exp. Therap. Vol. 160, pp. 22-31 (1968). This method is based upon the observation that when an unanesthetized, untreated mouse is exposed to chloroform vapor its respiration soon ceases and at that time both electrocardiographic and visual inspection reveal that the cardiac ventricles are fibrillating. If the mouse is treated appropriately with known antiarrhythmic agents prior to exposure to chloroform, the respiratory failure is not accompanied by ventricular fibrillation.

frog sciatic nerve = assay: Local anesthetic effect in vitro on the frog sciatic nerve; details: 20 mM, exposure for 96 min
mice [3] = details: mouse, in vivo, po, 1440 min
ventricular fibrillation = assay: Protection against chloroform induced ventricular fibrillation in mice, oral (Table I); type: in vivo, female Swiss albino mice (HAM/ICR)
Procedure: as §1

[4] = test system: chloroform induced fibrillation; assay: Protection against chloroform induced fibrillation in mice, subcutaneous, potency relative to lidocaine (Table IV); type: in vivo; details: s.c., 20 min, statistical mean (confidence limits)
Procedure: as §1
The procedure used was a modification of the method previously described. The modification involved using a standard time of 20 minutes for each test run and four different doses of the same drug. Route of administration was subcutaneous.

ventricular arrhythmias [5] = assay: animal or person; details: for minimal effective dose: Canis lupus familiaris
Procedure: Tests on dogs with the compound 2-amino-2',6'-propionoxylidide were conducted according to a modification of the method described by A. S. Harris in "Delayed Development of Ventricular Ectopic Rhythms Following Experimental Coronary Occlusions", Circ. Vol. 1, pp. 1318-1328 (1950). In this method the dogs were anesthetized, the heart was exposed, and the anterior descending branch of the left coronary artery was ligated in two stages. The thorax was closed and the dog was allowed to recover from the anesthesia. […] B. B. Clark and J. R. Cummings, "Arrhythmias Following Experimental Coronary Occlusion and Their Response to Drugs", Annals New York Academy of Sciences, Vol. 65, pp. 543-551 (1956). […] The electrocardiographic, cardiovascular and other drug effects were monitored.
The dosage schedule was: 1st hr.: 15 mg/kg/hr; 2nd hr.: 30 mg/kg/hr; 3rd hr.: 60 mg/kg/hr. Infusions were stopped at the first sign of toxicity other than emesis.
The compound 3-amino-2',6'-butyroxylidide was also tested on dogs, according to a modification of the method of Harris as previously described. As in the previously described tests, unanesthetized dogs were supported in canvas slings and were treated either intravenously or orally with doses of 3-amino-2',6'-butyroxylidide. The electrocardiographic, cardiovascular and other drug effects were monitored.

[6] = test system: chloroform-induced arrhythmias; assay: animal or person; details: Mus musculus
cardiac arrhythmias = assay: Antiarrhythmic effect in mice, oral (summary statement); type: in vivo
Procedure: as §1

ventricular arrhythmias [7] = type: in vivo, dogs; details: for Complete Clearing, Duration: return of 50% of suppressed abnormal beats; for Complete Clearing, Onset: abnormal ventricular beats less than 5% of total beats
Procedure: Vol. 1, pp. 1318-1328 (1950). […] The electrocardiographic, cardiovascular and other drug effects were monitored.
Table II summarizes the results of oral administration:
Dogs #215 and #220 given 50 mg/kg dose at 0 mins and 100 mg/kg dose at 24
The electrocardiographic, cardiovascular and other drug effects were monitored.

[8] = oral, cumulative dose 100 mg/kg as HCl
[9] = oral, cumulative dose 300 mg/kg as HCl

Cc1cccc(C)c1NC(=O)C(C)N (racemic) [2-amino-2',6'-propionoxylidide]
LD50 at 24 h [1]: 529 mg/kg
Proportion of mice having ataxia just before CHCl3 challenge (mice [2]; dose LD0.1, 20 min): 10/10
Proportion of mice having ataxia just before CHCl3 challenge (mice [2]; dose LD0.1, 40 min): 10/10
Proportion of mice having ataxia just before CHCl3 challenge (mice [2]; dose LD0.1, 80 min): 8/10
Proportion of mice having ataxia just before CHCl3 challenge (mice [2]; dose LD0.1, 160 min): 5/10
block of the action potential of the nerve (frog sciatic nerve): does not block the action potential at all
24 Hr. Mortality LD0.1 (mice [3]): 382 mg/kg
Proportion of mice protected against fibrillation at LD0.1 (ventricular fibrillation; dose LD0.1, drug given 20 min before CHCl3 challenge): 9/10
Proportion of mice protected against fibrillation at LD0.1 (ventricular fibrillation; dose LD0.1, drug given 40 min before CHCl3 challenge): 9/10
Proportion of mice protected against fibrillation at LD0.1 (ventricular fibrillation; dose LD0.1, drug given 80 min before CHCl3 challenge): 10/10
Proportion of mice protected against fibrillation at LD0.1 (ventricular fibrillation; dose LD0.1, drug given 160 min before CHCl3 challenge): 9/10
Relative Potency (ED50 test compound/ED50 lidocaine) [4]: 0.33 (0.20 - 0.54)
minimal effective dose (ventricular arrhythmias [5]; iv, read-out: Antiarrhythmic doses (cumul.)): 75 mg/kg
minimal effective dose (ventricular arrhythmias [5]; iv, read-out: cumulative dose providing antiarrhythmic effects): 75 mg/kg
adverse reactions (ventricular arrhythmias [5]; dog, in vivo, iv): unaccompanied by any discernible adverse reactions
Number of dogs showing antiarrhythmic effect (ventricular arrhythmias [5]; i.v. infusion 15, 30, 60 mg/kg/hr, dogs tested: lidocaine 2, test compound 1, abnormal beats less than 5% of total): 1
Toxic doses (cumul.) (ventricular arrhythmias [5]; i.v. infusion, stopped at first sign of toxicity other than emesis, one value per dog): 81 mg/kg
Duration of Antiarrhythmic effect (ventricular arrhythmias [5]; i.v. infusion, return of 50% of suppressed abnormal ventricular beats, one value per dog): 71 min
suppression of the ventricular arrhythmias (ventricular arrhythmias [5]; intravenous doses, dogs): distinct suppression of the ventricular arrhythmias
ED50 [6]: 172 mg/kg
maximum oral dosage providing antiarrhythmic effects (cardiac arrhythmias): about 380 mg/kg
adverse reactions (ventricular arrhythmias [7]; dog, in vivo, po): unaccompanied by any discernible adverse reactions
Overt Toxicity: Convulsions, Onset (ventricular arrhythmias [7]; dog, in vivo, po, 50 mg/kg): None
Overt Toxicity: Emesis (ventricular arrhythmias [7]; dog, in vivo, po, 50 mg/kg): None
Overt Toxicity: Nystagmus (ventricular arrhythmias [7]; dog, in vivo, po, 50 mg/kg): None
Overt Toxicity: Other (ventricular arrhythmias [7]; dog, in vivo, po, 50 mg/kg): None
Overt Toxicity: Tremors (ventricular arrhythmias [7]; dog, in vivo, po, 50 mg/kg): None
Overt Toxicity: Convulsions, Onset (ventricular arrhythmias [7]; dog, in vivo, po, 100 mg/kg): None
Overt Toxicity: Emesis (ventricular arrhythmias [7]; dog, in vivo, po, 100 mg/kg): None
Overt Toxicity: Nystagmus (ventricular arrhythmias [7]; dog, in vivo, po, 100 mg/kg): None
Overt Toxicity: Other (ventricular arrhythmias [7]; dog, in vivo, po, 100 mg/kg): None
Overt Toxicity: Tremors (ventricular arrhythmias [7]; dog, in vivo, po, 100 mg/kg): None
Overt Toxicity: Convulsions, Onset (ventricular arrhythmias [7]; dog, in vivo, po, 150 mg/kg): None
Overt Toxicity: Nystagmus (ventricular arrhythmias [7]; dog, in vivo, po, 150 mg/kg): None
Overt Toxicity: Other (ventricular arrhythmias [7]; dog, in vivo, po, 150 mg/kg): None
Overt Toxicity: Tremors (ventricular arrhythmias [7]; dog, in vivo, po, 150 mg/kg): None
Overt Toxicity: Convulsions, Duration (ventricular arrhythmias [7]; dog, in vivo, po, 200 mg/kg): > 3 min
Overt Toxicity: Nystagmus (ventricular arrhythmias [7]; dog, in vivo, po, 200 mg/kg): None
Overt Toxicity: Other (ventricular arrhythmias [7]; dog, in vivo, po, 200 mg/kg): None
Overt Toxicity: Convulsions, Duration (ventricular arrhythmias [7]; dog, in vivo, po, 300 mg/kg): 17 min
Overt Toxicity: Convulsions, Onset (ventricular arrhythmias [7]; dog, in vivo, po, 300 mg/kg): None
Overt Toxicity: Emesis (ventricular arrhythmias [7]; dog, in vivo, po, 300 mg/kg): None
Overt Toxicity: Nystagmus (ventricular arrhythmias [7]; dog, in vivo, po, 300 mg/kg): None
Overt Toxicity: Other (ventricular arrhythmias [7]; dog, in vivo, po, 300 mg/kg): None
Overt Toxicity: Tremors (ventricular arrhythmias [7]; dog, in vivo, po, 300 mg/kg): None
suppression of the ventricular arrhythmias (ventricular arrhythmias [7]; oral doses, dogs): distinct suppression of the ventricular arrhythmias
Partial Clearing, Onset (ventricular arrhythmias [7]; oral, cumulative dose 50 mg/kg as HCl, 50-95% reduction of abnormal ventricular beats): None
Complete Clearing, Duration (ventricular arrhythmias [7]; oral, cumulative dose 50 mg/kg as HCl, *** followed by off and on bursts): 195 min
Complete Clearing, Onset (ventricular arrhythmias [7]; [8]): 120 min
Complete Clearing, Duration (ventricular arrhythmias [7]; [8]): 45 min
Complete Clearing, Duration (ventricular arrhythmias [7]; oral, cumulative dose 200 mg/kg as HCl, *** followed by off and on bursts): 30 min
Complete Clearing, Onset (ventricular arrhythmias [7]; [9]): 30 min
Complete Clearing, Duration (ventricular arrhythmias [7]; [9]): > 180 min
